In US20130196986A1 (priority 2010, published 2013):

Biological target: T1, P2X7 receptor (Homo sapiens, UniProt Q99572)
T1 construct: stably expressing the full length P2X7 receptor; expressed in transfected cells
T1 sequence (Q99572 1-595): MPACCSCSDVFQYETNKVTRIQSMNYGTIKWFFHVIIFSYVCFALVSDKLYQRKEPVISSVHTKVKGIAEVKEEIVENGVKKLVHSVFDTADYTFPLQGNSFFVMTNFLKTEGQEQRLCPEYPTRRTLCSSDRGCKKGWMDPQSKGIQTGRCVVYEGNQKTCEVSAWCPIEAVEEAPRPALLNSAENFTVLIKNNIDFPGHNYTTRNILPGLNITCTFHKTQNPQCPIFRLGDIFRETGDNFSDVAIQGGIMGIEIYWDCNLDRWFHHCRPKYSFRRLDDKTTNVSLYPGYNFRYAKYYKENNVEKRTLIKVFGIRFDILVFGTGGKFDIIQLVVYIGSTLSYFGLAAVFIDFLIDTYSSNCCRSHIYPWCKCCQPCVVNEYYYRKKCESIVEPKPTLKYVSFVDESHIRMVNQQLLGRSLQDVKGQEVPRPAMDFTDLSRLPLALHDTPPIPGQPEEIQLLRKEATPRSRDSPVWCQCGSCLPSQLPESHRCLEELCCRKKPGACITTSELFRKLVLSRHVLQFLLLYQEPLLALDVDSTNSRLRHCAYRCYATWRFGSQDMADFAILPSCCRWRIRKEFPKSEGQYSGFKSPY
Assay: Ca++ flux assay (FLIPR) in P2X7-HEK-293 cell line stably expressing the full length P2X7 receptor, Bz-ATP activation
Assay type: cell-based
Conditions: P2X7-HEK-293 cells; agonist Bz-ATP; fluorescence as total area over 90 seconds; read-out: P2X7 Ca Flux hu IC50
Experimental: The ability of Triazolopyrazinone Compounds to inhibit P2X7 function can be determined in Ca^++ flux assay using a P2X7-HEK-293 cell line stably expressing the full length P2X7 receptor. The assay protocol is as described in Cheewatrakoolpong et al., Biochem. Biophys. Res. Commun. 332:17-27 (2005) with minor modification, and is as summarized hereinafter. Briefly, cells were plated in poly-D-lysine-coated wells, and incubated at 37° C. for 24 hours. Cells were then incubated for 1 hour with a loading buffer which contains a dye sensitive to changes in Ca^++ concentration (lx Calcium Plus no wash dye from Molecular Devices, Sunnyvale, Calif.). The test compounds were added to the wells in the dye loading step. Plates containing the wells were transferred to a Fluorometric Imaging Plate Reader (Molecular Devices, Sunnyvale, Calif.). The cells were activated by the addition of the P2X7 receptor agonist 2′(3) —O-(4-benzoylbenzoyl)adenosine 5′-triphosphate (Bz-ATP from Sigma-Aldrich, St. Louis, Mo.), and the fluorescence was monitored for 90 seconds. The fluorescent signal was determined as the total area over the 90 second run time. Using this protocol, representative Triazolopyrazinone Compounds, compounds 1471 were tested. Tables 3 to 6 show the concentration at which 50% of the maximum response in the Ca^++ was inhibited (IC50) for each of the test compounds.

**Q.** With `Cc1c(-n2ccn3c(SCc4ccccc4Cl)nnc3c2=O)cccc1C(F)(F)F` [Compound 28, 3-(2-chlorobenzylthio)-7-(2-methyl-3-(trifluoromethyl)phenyl)-[1,2,4]triazolo[4,3-a]pyrazin-8(7H)-one] as the molecule, how does the IC50 read?
**A.** 148 nM

**Q.** Which IC50 does the source give for `O=c1c2nnc(SCc3ccccc3)n2ccn1-c1cccc2ccccc12` [Compound 29, 3-(benzylthio)-7-(naphthalen-1-yl)-[1,2,4]-triazolo[4,3-a]pyrazin-8(7H)-one] here?
**A.** 3630 nM

**Q.** With `Cc1c(Cl)cccc1-n1ccn2c(SCc3ccccc3Oc3ccccc3)nnc2c1=O` [Compound 30, 7-(3-chloro-2-methylphenyl)-3-(2-phenoxybenzylthio)-[1,2,4]triazolo[4,3-a]pyrazin-8(7H)-one] as the molecule, how does the IC50 read?
**A.** 67 nM

**Q.** Which IC50 does the source give for `Cc1c(Cl)cccc1-n1ccn2c(SCc3ccccc3N3CCN(C(=O)OC(C)(C)C)CC3)nnc2c1=O` [Compound 31, tert-butyl 4-(2-((7-(3-chloro-2-methylphenyl)-8-oxo-7,8-dihydro-[1,2,4]triazolo[4,3-a]pyrazin-3-ylthio)methyl)phenyl)piperazine-1-carboxylate] here?
**A.** 1170 nM

**Q.** For `Cc1c(Cl)cccc1-n1ccn2c(SCc3ccccc3N3CCOCC3)nnc2c1=O` [Compound 32, 7-(3-chloro-2-methylphenyl)-3-(2-morpholinobenzylthio)-[1,2,4]triazolo[4,3-a]pyrazin-8(7H)-one], which IC50 is on record?
**A.** 553 nM

**Q.** For `[2H]c1c([2H])c([2H])c(CSc2nnc3c(=O)n(-c4cccc(Cl)c4C)ccn23)c([2H])c1[2H]` [Compound 33], which IC50 is on record?
**A.** 85.7 nM

**Q.** How did the IC50 turn out when `[2H]c1c([2H])c([2H])c(C([2H])([2H])Sc2nnc3c(=O)n(-c4cccc(Cl)c4C)ccn23)c([2H])c1[2H]` [Compound 34] was run?
**A.** 148 nM

**Q.** With `CCc1ccccc1CSc1nnc2c(=O)n(-c3cccc(Cl)c3C)ccn12` [Compound 35, 7-(3-chloro-2-methylphenyl)-3-(2-ethylbenzylthio)-[1,2,4]triazolo[4,3-a]pyrazin-8(7H)-one] as the molecule, how does the IC50 read?
**A.** 213 nM

**Q.** With `Cc1c(Cl)cccc1-n1ccn2c(SCc3ccccc3-c3cccnc3)nnc2c1=O` [Compound 36, 7-(3-chloro-2-methylphenyl)-3-(2-(pyridin-3-yl)benzytthio)-[1,2,4]triazolo[4,3-a]pyrazin-8(7H)-one] as the molecule, how does the IC50 read?
**A.** 147 nM

**Q.** `Cc1c(Cl)cccc1-n1ccn2c(SCc3ccccc3-c3ccco3)nnc2c1=O` [Compound 37, 7-(3-chloro-2-methylphenyl)-3-(2-(furan-2-yl)benzylthio)-[1,2,4]triazolo[4,3-a]pyrazin-8(7H)-one] was tested. Which IC50 did it give?
**A.** 97.4 nM

**Q.** For `Cc1c(Cl)cccc1-n1ccn2c(SCc3ccccc3Cn3cncn3)nnc2c1=O` [Compound 38, 3-(2-((1H-1,2,4-triazol-1-yl)methyl)benzylthio)-7-(3-chloro-2-methylphenyl)-[1,2,4]triazolo[4,3-a]pyrazin-8(7H)-one], which IC50 is on record?
**A.** 1440 nM

**Q.** With `Cc1c(Cl)cccc1-n1ccn2c(SCc3ccccc3CN3CCOCC3)nnc2c1=O` [Compound 39, 7-(3-chloro-2-methylphenyl)-3-(2-(rnorpholinornethyl)benzylthio)-[1,2,4]triazolo[4,3-a]pyrazin-8(7H)-one] as the molecule, how does the IC50 read?
**A.** 636 nM

**Q.** With `Cc1c(Cl)cccc1-n1ccn2c(SCc3ccccc3-c3cccs3)nnc2c1=O` [Compound 40, 7-(3-chloro-2-methylphenyl)-3-(2-(thiophen-2-yl)benzylthio)-[1,2,4]triazolo[4,3-a]pyrazin-8(7H)-one] as the molecule, how does the IC50 read?
**A.** 45.8 nM

**Q.** For `Cc1c(Cl)cccc1-n1ccn2c(SCc3ccccc3C(C)C)nnc2c1=O` [Compound 41, 7-(3-chloro-2-methylphenyl)-3-(2-isopropylbenzylthio)-[1,2,4]triazolo[4,3-a]pyrazin-8(7H)-one], which IC50 is on record?
**A.** 372 nM

**Q.** How did the IC50 turn out when `Cc1c(Cl)cccc1-n1ccn2c(SCc3ccccc3COc3ccccc3)nnc2c1=O` [Compound 42, 7-(3-chloro-2-methylphenyl)-3-(2-(phenoxymethyl)benzylthio)-[1,2,4]triazolo[4,3-a]pyrazin-8(7H)-one] was run?
**A.** 170 nM

**Q.** With `Cc1c(Cl)cccc1-n1ccn2c(SCc3ccccc3CS(=O)(=O)c3ccccc3)nnc2c1=O` [Compound 43, 7-(3-chloro-2-methylphenyl)-3-(2-(phenylsulfonylmethyl)benzylthio)-[1,2,4]triazolo[4,3-a]pyrazin-8(7H)-one] as the molecule, how does the IC50 read?
**A.** 233 nM

**Q.** With `Cc1c(Cl)cccc1-n1ccn2c(SCc3ccccc3CCc3ccccc3)nnc2c1=O` [Compound 44] as the molecule, how does the IC50 read?
**A.** 553 nM

**Q.** With `Cc1c(Cl)cccc1-n1ccn2c(SCc3ccccc3Cc3ccccc3)nnc2c1=O` [Compound 45, 3-(2-benzylbenzylthio)-7-(3-chloro-2-methylphenyl)-[1,2,4]triazolo[4,3-a]pyrazin-8(7H)-one] as the molecule, how does the IC50 read?
**A.** 176 nM

**Q.** With `Cc1c(Cl)cccc1-n1ccn2c(SCc3cccc(-c4ccccc4)c3)nnc2c1=O` [Compound 46, 3-(biphenyl-3-ylmethylthio)-7-(3-chloro-2-methylphenyl)-[1,2,4]triazolo[4,3-a]pyrazin-8(7H)-one] as the molecule, how does the IC50 read?
**A.** 3500 nM

**Q.** For `Cc1ccccc1CSc1nnc2c(=O)n(-c3cccc(C(F)(F)F)c3Cl)ccn12` [Compound 47, 7-(2-chloro-3-(trifluorornethyl)phenyl)-3-(2-methylbenzylthio)-[1,2,4]triazolo[4,3-a]pyrazin-8(7H)-one], which IC50 is on record?
**A.** 41.8 nM

**Q.** For `O=c1c2nnc(SCc3ccccc3-c3ccccc3)n2ccn1-c1cccc(C(F)(F)F)c1Cl` [Compound 48, 3-(biphenyl-2-ylmethylthio)-7-(2-chloro-3-(trifluoromethyl)phenyl)-[1,2,4]triazolo[4,3-a]pyrazin-8(7H)-one], which IC50 is on record?
**A.** 17.3 nM

**Q.** For `Cc1c(-n2ccn3c(SCc4ccccc4-c4ccccc4)nnc3c2=O)cccc1C(F)(F)F` [Compound 49, 3-(biphenyl-2-ylmethylthio)-7-(2-methyl-3-(trifluoromethyl)phenyl)-[1,2,4]triazolo[4,3-a]pyrazin-8(7H)-one], which IC50 is on record?
**A.** 15.9 nM

**Q.** With `Cc1c(Cl)cccc1-n1ccn2c(SC(=O)N(C)c3ccccc3)nnc2c1=O` [Compound 50, S-7-(3-chloro-2-methylphenyl)-8-oxo-7,8-dihydro-[1,2,4]triazolo[4,3-a]pyrazin-3-yl methyl(phenyl)carbamothioate] as the molecule, how does the IC50 read?
**A.** 6530 nM

**Q.** For `Cc1c(-n2ccn3c(SCc4ccccc4OC(F)(F)F)nnc3c2=O)cccc1C(F)(F)F` [Compound 51, 7-(2-methyl-3-(trifluorornethyl)phenyl)-3-(2-(trifluoromethoxy)benzylthio)-[1,2,4]triazolo[4,3-a]pyrazin-8(7H)-one], which IC50 is on record?
**A.** 44.2 nM

**Q.** `Cc1c(Cl)cccc1-n1ccn2c(SCc3ccccc3SC(F)(F)F)nnc2c1=O` [Compound 52, 7-(3-chloro-2-methylphenyl)-3-(2-(trifluorornethylthio)benzylthio)-[1,2,4]triazolo[4,3-a]pyrazin-8(7H)-one] was tested. Which IC50 did it give?
**A.** 316 nM

**Q.** Which IC50 does the source give for `Cc1c(Cl)cccc1-n1ccn2c(SCc3ccccc3[N+](=O)[O-])nnc2c1=O` [Compound 53, 7-(3-chloro-2-methylphenyl)-3-(2-nitrobenzylthio)-[1,2,4]triazolo[4,3-a]pyrazin-8(7H)-one] here?
**A.** 994 nM

**Q.** How did the IC50 turn out when `Cc1c(Cl)cccc1-n1ccn2c(SCc3ccccc3-c3ccccc3)nnc2c1=O` [Compound 54, 3-(biphenyl-2-ylmethylthio)-7-(3-chloro-2-methylphenyl)-[1,2,4]triazolo[4,3-a]pyrazin-8(7H)-one] was run?
**A.** 44 nM

**Q.** For `Cc1cccc(CSc2nnc3c(=O)n(-c4cccc(Cl)c4C)ccn23)c1F` [Compound 55, 7-(3-chloro-2-methylphenyl)-3-(2-fluoro-3-methylbenzylthio)-[1,2,4]triazolo[4,3-a]pyrazin-8(7H)-one], which IC50 is on record?
**A.** 432 nM

**Q.** With `Cc1c(-n2ccn3c(SCc4ccccc4F)nnc3c2=O)cccc1C(F)(F)F` [Compound 56, 3-(2-fluorobenzylthio)-7-(2-methyl-3-(trifluoromethyl)phenyl)-[1,2,4]triazolo[4,3-a]pyrazin-8(7H)-one] as the molecule, how does the IC50 read?
**A.** 167 nM

**Q.** With `Cc1ccccc1CSc1nnc2c(=O)n(-c3cccc(C(F)(F)F)c3C)ccn12` [Compound 57, 7-(2-methyl-3-(trifluoromethyl)phenyl)-3-(2-methylbenzylthio)-[1,2,4]triazolo[4,3-a]pyrazin-8(7H)-one] as the molecule, how does the IC50 read?
**A.** 86.4 nM

**Q.** For `O=c1c2nnc(SCc3cc(Cl)cc(Cl)c3)n2ccn1-c1cccc(C(F)(F)F)c1F` [Compound 58, 3-(3,5-dichlorobenzylthio)-7-(2-fluoro-3-(trifluoromethyl)phenyl)-[1,2,4]triazolo[4,3-a]pyrazin-8(7H)-one], which IC50 is on record?
**A.** 427 nM
